{"source": "patent US8187876B2", "about": "“Expansion of stem/progenitor cells by inhibition of enzymatic reactions catalyzed by the Sir2 family of enzymes” (Gamida Cell Ltd., priority 2004, dated 2012)", "assay_type_in_all_cases": "cell-based, human", "key": {"[1]": {"tested_on": "CD34+ cells", "test": "FACS immunophenotyping of cultured/re-selected CD34+ cells for stem/early progenitor cells", "experimental": "Immunophenotyping—For immuno-phenotyping, cells were harvested, washed with phosphate buffered saline (PBS), containing 1% BSA and 0.1% sodium azide, and stained by incubation (at 4° C. for 60 min) with phycoerythrin (PE)-conjugated anti CD38 (Immunoquality Products, The Netherlands), flourescein isothiocyanate (FITC)-conjugated anti CD34 (Miltenyi Biotec) both at 5 μl per 50 μl cell suspension. The cells were then washed with the same buffer and analyzed, using FACS-calibur flow cytometer (Becton-Dickinson, Immunofluorometry systems, Mountain View, Calif.). Cells were passed at a rate of about 1000 cells/second, using saline as the sheath fluid. A 488 nm argon laser beam served as the light source for excitation. Emission of ten thousand cells was measured using logarithmic amplification and calculated using the cellQuest software. Background noise was determined using isotype control stained cells. Arithmetic Mean Fluorescence Channel (MFC) of the negative and positive populations and the stained cells to noise (S/N) ratio were calculated.\nThe highly purified, re-selected CD34+ cell fraction from a three week culture was FACS analyzed for stem/early progenitor cells: CD34+CD38− (FIG. 3), CD34+Lin−(CD3, 4, 19, 38, 33, 14 and 15 minus, FIG. 4) as well as for the percentages of CD38-HLA-DR minus cells (FIG. 5). […] For example, at 5 uM nicotinamide the percentages of CD34+Lin− cells were 4.11 whereas in control cultures only 0.02%, the percentages of CD34+CD38− cells were 34.6 in nicotinamide cultures and only 0.67 in control.\nThe CD34+CD38− cells are shown in the upper left part of the plot. FIG. 6b, the cells were stained with CD34(PE) and Lin(38, 33, 4, 3, 15, 14, 19, 61) (FITC). The CD34+Lin− cells are shown in the upper left part of the plot. FIG. 6c, the cells were stained for 34PE and HLA-DR and CD38 FITC. The CD34+/CD38− HLA-DR− cells are shown in the upper left part of the plot."}, "[2]": {"tested_on": "CD34+ cells", "test": "Assay for Colony Forming Units (CFUc) in semi-solid medium", "conditions": "200 mM Splitomicin for first 3 weeks; week 5; colonies scored after 14 days", "experimental": "Assay for Colony Forming Units (CFU)—Cells were cloned in semi-solid, methylcellulose-containing medium supplemented with 2 IU/mL erythropoietin (Eprex, Cilag AG Int., Switzerland), stem cell factor and IL-3, both at 20 ng/mL, G-CSF and GM-CSF, both at 10 ng/mL (all from Perpo Tech). Cultures were incubated for 14 days at 37° C. in humidified atmosphere of 5% CO2 in air.\nCell culturing—Cell culturing was effected was described above. Specifically, cultures were initiated with a total of 1.2×10^5 CD34+ cells in cytokine-supplemented medium, with or without (control) […] Splitomicin. From week 3 and on all cultures were supplemented with cytokines only. On week 5 cells were enumerated, numbers of CFUc were determined and CD34+ cells were re-isolated from 10 ml cultures, counted and accumulative numbers per culture were calculated."}, "[3]": {"tested_on": "CD34+ cells", "test": "Two phase culture system: long-term expansion of CD34+ cell cultures (3-week treatment phase, then cytokines only)", "conditions": "200 mM Splitomicin for first 3 weeks", "experimental": "Two phase culture system—Purified CD34+ cells were cultured in culture bags (American Fluoroseal Co. Gaithersburg, Md., USA) at a concentration of 1×10^4 cells/ml in MEMα/10% FCS containing the following human recombinant cytokines: Thrombopoietin (TPO), interleukin-6 (IL-6), FLT-3 ligand and stem cell factor (SCF), each at a final concentration of 50 ng/ml (Perpo Tech, Inc., Rocky Hill, N.J., USA), with or without Nicotinamide or Sirtinol or Splitomicin and incubated at 37° C. in a humidified atmosphere of 5% CO2 in air. Until week 3, the cultures were topped weekly with the same volume of fresh medium, Nicotinamide or Sirtinol or Splitomicin and growth factors. From week three and up to the termination of the experiments the cultures were weekly demi-depopulated and supplemented with cytokines only. Cells were counted following staining with trypan blue. At various time points, harvested cells were used to assay the content of colony forming units in culture (CFUc), enumeration of CD34+ cells following re-selection and immunophenotype analysis. Cell morphology was determined on cytospin (Shandon). […] On week 5 cells were enumerated, numbers of CFUc were determined and CD34+ cells were re-isolated from 10 ml cultures, counted and accumulative numbers per culture were calculated."}, "[4]": {"tested_on": "CD34+ cells", "test": "Ex vivo expansion of CD34+ cell cultures, three weeks, CD34+ cells re-selected and enumerated", "conditions": "5 μM nicotine amide; cytokines SCF, TPO, FLt3, IL-6, IL-3; only cytokine treated cultures 35×10^4", "experimental": "Sample collection and purification—Cells were obtained from umbilical cord blood (CB) after a normal full-term delivery (informed consent was given). Samples were collected and processed within 12 hours postpartum. Blood was mixed with 3% Gelatin (Sigma, St. Louis, Mo.) and let sedimented for 30 minutes to remove most red blood cells (RBC). The leukocyte-rich fraction was harvested and layered on Ficoll-Hypaque gradient (1.077 g/mL; Sigma), and centrifuged at 400 g for 30 minutes. […]\nPurification of CDD133+ and CD34+ cells—To purify CDD133+ or CD34^+ cells, the mononuclear cell fraction was subjected to two cycles of immuno-magnetic separation using the “MiniMACS or Clinimax CD34 progenitor cell isolation kit” (Miltenyi Biotec, Aubun, Calif.) following the manufacturer's recommendations. The purity of the CD34^+ population obtained ranged from 95% to 98% as evaluated by flow cytometry (see below). […]\nAt weekly intervals, cell cultures were semi-depopulated and supplemented with fresh medium, serum and cytokines. At various time points, cells were harvested, counted following staining with trypan blue, and cell morphology was determined on cytospin (Shandon, UK)-prepared smears stained with May-Grunwald/Giemsa solutions. […]"}}, "data": [{"smiles": "O=C1CCc2c(ccc3ccccc23)O1", "note": "[Splitomicin]", "values": [{"measurement": "CD34+/CD38− population shift in FACS dot plot", "setting": "[1]; 75 mM splitomicin", "value": "remarkable up-left shift"}, {"measurement": "colony formation (CFU analysis), self-renewal potential", "setting": "[2]", "value": "increase in colony formation"}, {"measurement": "increase in CD34+ cells", "setting": "[3]; CD34+ cells re-isolated on week 5", "value": "about 30%"}, {"measurement": "total cell expansion vs cytokine-only control", "setting": "[3]; counted on week 5", "value": "more than 2 fold"}]}, {"smiles": "NC(=O)c1cccnc1", "note": "[Nicotinamide, nicotinamide]", "values": [{"measurement": "percentages of CD34+CD38− cells in re-selected CD34+ fraction", "setting": "[1]; 5 uM nicotinamide, three week culture, control 0.67", "value": 34.6, "unit": "%"}, {"measurement": "percentages of CD34+Lin− cells in re-selected CD34+ fraction", "setting": "[1]; 5 uM nicotinamide, three week culture, control cultures 0.02%", "value": 4.11, "unit": "%"}, {"measurement": "CD34+ cells re-selected after three week expansion", "setting": "[4]", "value": "180×10^4"}]}]}
